The target of test [1] is human catalytic domain ROCK II protein (amino acids 5-554) with a N-terminal GST tag (Homo sapiens, UniProt O75116). Description: biochemical.
Test [2] concerns cellular ROCK activity (cofilin phosphorylation at Ser3) in A7r5 rat smooth muscle cells. Nature of the test: Cellular ROCK activity: cofilin (Ser3) phosphorylation, In-Cell Western assay. It is filed as cell-based. The following applies: Rattus norvegicus, A7R5, 1 h, 1 hour compound incubation, phospho-cofilin (Ser3), read-out: CELL_IC50. How it is done:
The potency of Rho-associated protein kinase (ROCK) inhibitors was quantified by measuring cofilin phosphorylation levels at Serine 3 (Ser3) as a measure of cellular ROCK activity by In-Cell Western assay. […] The assay plate was imaged and quantified on the Odyssey imager (LICOR Biosciences).
ROCK inhibitor compound plate preparation. […] Stock compounds and control are added directly to ECHO plate (Labcyte) by Janus.
A7r5 cell culture and plating. A7r5 cells were cultured according to standard cell culture protocols in A7r5 growth media (DMEM with Glutamax and 10% FBS). […] 45 μl of re-suspended A7r5 cells were plated at 3000 cells/well in a sterile, μclear, black, F-bottom, 384-well microplate (Greiner bio-one). Seeded cells allowed to settle in wells on the bench for 1 hour before incubation at 37° C., 5% CO2 overnight.
Assay reagent and antibody preparations. Wash buffer was prepared by addition of Tween-20 to Dulbecco's Phosphate Buffered Saline (DPBS) (1×) without calcium and magnesium to make 1% Tween-20 as final concentration. Blocking buffer was prepared by addition of TritonX-100 to SeaBlock buffer (ThermoFisher) to make 0.3% TritonX-100 as final concentration. […] Secondary antibody mix was prepared by diluting donkey anti-rabbit 800CW antibody (LICOR Biosciences) 1:1000 in SeaBlock buffer.
Assay procedure. Compound plate was diluted by addition of 19 μl/well compound dilution buffer (DMEM with Glutamax) using 125 μl 16-channel Matrix electronic pipette. 5 μl diluted compound was stamped from compound plate to assay plate containing A7r5 cells using Bravo (384-well head from Agilent) liquid handler and incubated at 37° C., 5% CO2 for 1 hour. Cells were fixed by addition of 5 μl 37% formaldehyde using 125 μl 16-channel Matrix electronic pipette and incubation for 20 min at room temperature. The assay plate was washed 5× with 60 μl/well wash buffer. […] Next, the assay plate was sealed, centrifuged at 1000 rpm for 5 seconds and incubated at 4° C. overnight on an orbital shaker at 300 rpm. […] The assay plate was centrifuged at 1000 rpm for 5 seconds and incubated on an orbital shaker at 300 rpm for 60 min at room temperature. Finally, assay plate was washed and wells left empty before measurement of 700 nm and 800 nm fluorescence intensities on Odyssey imager set at 4.0 mm focus offset.

Where a name gives a salt, the structure may show the parent alone.

Chain of human catalytic domain ROCK II protein (amino acids 5-554) with a N-terminal GST tag (O75116 5-554): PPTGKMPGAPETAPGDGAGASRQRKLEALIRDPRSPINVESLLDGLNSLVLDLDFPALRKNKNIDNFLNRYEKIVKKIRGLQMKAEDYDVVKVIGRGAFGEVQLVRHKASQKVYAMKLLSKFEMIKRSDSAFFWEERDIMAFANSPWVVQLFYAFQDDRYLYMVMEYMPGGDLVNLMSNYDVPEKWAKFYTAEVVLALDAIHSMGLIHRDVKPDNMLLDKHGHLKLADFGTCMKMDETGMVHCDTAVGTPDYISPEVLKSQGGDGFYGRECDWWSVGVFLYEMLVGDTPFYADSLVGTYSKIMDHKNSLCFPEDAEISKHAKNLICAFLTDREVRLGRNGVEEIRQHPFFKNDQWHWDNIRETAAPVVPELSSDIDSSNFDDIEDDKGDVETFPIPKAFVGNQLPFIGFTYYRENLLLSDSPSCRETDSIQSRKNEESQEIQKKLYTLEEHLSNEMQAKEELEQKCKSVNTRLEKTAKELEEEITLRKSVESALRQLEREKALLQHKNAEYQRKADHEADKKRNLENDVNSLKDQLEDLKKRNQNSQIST

Regarding `C[C@@H]1CN(c2ccncc2F)CCN1C(=O)NCc1ccccc1Cl` [Example 54, (R)—N-(2-Chlorobenzyl)-4-(3-fluoropyridin-4-yl)-2-methylpiperazine-1-carboxamide], the IC50 in test [1] came out at 13 nM; in test [2] it was 144 nM.

As to `C[C@@H]1CN(c2ccnc(F)c2)CCN1C(=O)NCc1ccccc1Cl` [Example 106], the IC50 in test [1] is 184 nM; in test [2] it was 1620 nM.

Regarding `COc1cccc([C@@H](C)NC(=O)N2CCN(c3ccncc3F)[C@H]3C[C@H]32)c1` [Example 152], the results for the IC50 in test [1] and in test [2] were 16.3 nM and 248 nM, respectively.

As to `COc1cccc(CNC(=O)N2CCN(c3ccncc3F)[C@@H](C)C2)c1` [Example 150], the IC50 in test [1] worked out at 20.1 nM; in test [2], 707 nM.

In the case of `COc1cccc([C@H](C)NC(=O)N2CCN(c3ccncc3F)CC2)c1Cl` [Example 125], the IC50 in test [1] came out at 1160 nM; in test [2], 4310 nM.

On to `C[C@@H]1CN(c2ccncc2F)CCN1C(=O)N[C@H](C)c1cccc2c1CC(C)(C)O2` [Example 57, (R)—N—((R)-1-(2,2-Dimethyl-2,3-dihydrobenzofuran-4-yl)ethyl)-4-(3-fluoropyridin-4-yl)-2-methylpiperazine-1-carboxamide], for which the IC50 in test [1] stood at 5 nM; in test [2] it was 39.1 nM.

Take `COc1cccc([C@@H](C)NC(=O)N2C[C@H]3C[C@@H]2CN3c2ccncc2F)c1` [Example 153]: the IC50 in test [1] was 238 nM; in test [2], 2430 nM.

Consider `COc1ccc(F)c([C@@H](C)NC(=O)N2CCN(c3ccncc3F)CC2)c1` [Example 126], for which the results for the IC50 in test [1] and in test [2] were 60.9 nM and 924 nM, respectively.

For the compound `C[C@@H](NC(=O)N1CCN(c2ccncc2F)CC1)c1cccc2occc12` [Example 29, (R)—N-(1-(Benzofuran-4-yl)ethyl)-4-(3-fluoropyridin-4-yl)piperazine-1-carboxamide], the IC50 was 4.5 nM in test [1] and 54.1 nM in test [2].

Turning to `C[C@@H](NC(=O)N1CCN(c2ccncc2F)CC1)c1cccc2c1CC(C)(C)O2` [Example 30, (R)—N-(1-(2,2-Dimethyl-2,3-dihydrobenzofuran-4-yl)ethyl)-4-(3-fluoropyridin-4-yl)piperazine-1-carboxamide], the IC50 in test [1] turned out to be 22.4 nM; in test [2], 301 nM.

Turning to `COc1ccc(Cl)c([C@@H](C)NC(=O)N2CCN(c3ccnc(F)c3)C[C@H]2C)c1` [Example 3, (R)—N—((R)-1-(2-Chloro-5-methoxyphenyl)ethyl)-4-(2-fluoropyridin-4-yl)-2-methylpiperazine-1-carboxamide], the IC50 stood at 59.9 nM in test [1] and 2410 nM in test [2].

Consider `C[C@@H]1CN(c2ccncc2F)CCN1C(=O)NCc1cccc2c1OCCO2` [Example 77, (R)—N-((2,3-Dihydrobenzo[b][1,4]dioxin-5-yl)methyl)-4-(3-fluoropyridin-4-yl)-2-methylpiperazine-1-carboxamide formate], for which the IC50 was found to be 7.6 nM in test [1] and 191 nM in test [2].

With `C[C@@H](NC(=O)N1CCN(c2ccncc2F)CC1)c1ccccc1Cl` [Example 124], the IC50 came out at 61.1 nM in test [1] and 1160 nM in test [2].

Turning to `C[C@H](NC(=O)N1CCN(c2ccncc2F)C[C@H]1C)c1cccc2c1N(C)CCO2` [Example 144], the IC50 was 12.8 nM in test [1] and 674 nM in test [2].

Turning to `COc1cc([C@@H](C)NC(=O)N2CCN(c3ccncc3F)C[C@H]2C)ccc1F` [Example 53, (R)—N—((R)-1-(4-Fluoro-3-methoxyphenyl)ethyl)-4-(3-fluoropyridin-4-yl)-2-methylpiperazine-1-carboxamide], the values for the IC50 in test [1] and in test [2] were 3.5 nM and 33.3 nM, respectively.

Consider `COc1cccc([C@@H](C)NC(=O)N2CCN(c3ccncc3F)CC2CO)c1` (stereo partly shown) [Example 137], for which the IC50 in test [1] was determined as 4.8 nM; in test [2] it was 79.8 nM.

As for `C[C@@H]1CN(c2ccncc2F)CCN1C(=O)N[C@H](C)c1cccc2c1CCO2` [Example 141], the IC50 is 1.8 nM in test [1] and 1.7 nM in test [2].

Turning to `C[C@@H]1CN(c2ccncc2F)CCN1C(=O)N[C@H](C)c1cccc2c1OC(F)(F)O2` [Example 67, (R)—N—((R)-1-(2,2-Difluorobenzo[d][1,3]dioxol-4-yl)ethyl)-4-(3-fluoropyridin-4-yl)-2-methylpiperazine-1-carboxamide], the IC50 in test [1] was 10.1 nM; in test [2] it was 243 nM.

Regarding `C[C@@H](NC(=O)N1CCN(c2ccncc2F)CC1)c1cccc(OC(F)F)c1` [Example 127], the IC50 was found to be 24.2 nM in test [1] and 428 nM in test [2].

For the compound `C[C@@H](NC(=O)N1CCN(c2ccncc2F)CC1)c1cccc2c1CCO2` [Example 28, (R)—N-(1-(2,3-Dihydrobenzofuran-4-yl)ethyl)-4-(3-fluoropyridin-4-yl)piperazine-1-carboxamide], the figures for the IC50 in test [1] and in test [2] were 2.8 nM and 27.2 nM, respectively.

Consider `CC(NC(=O)N1CCN(c2ccncc2F)CC1)c1cccc(F)c1Cl` (single isomer, unassigned) [Example 22, N-(1-(2-Chloro-3-fluorophenyl)ethyl)-4-(3-fluoropyridin-4-yl)piperazine-1-carboxamide], for which the results for the IC50 in test [1] and in test [2] were 46.7 nM and 1020 nM, respectively.

For the compound `C[C@@H]1CN(c2ccnc(F)c2)CCN1C(=O)NCc1cccc2occc12` [Example 8, (R)—N-(Benzofuran-4-ylmethyl)-4-(2-fluoropyridin-4-yl)-2-methylpiperazine-1-carboxamide], the IC50 in test [1] was 22 nM; in test [2] it was 676 nM.

In the case of `C[C@@H]1CN(c2ccncc2F)CCN1C(=O)N[C@H](C)c1cccc2nn(C)cc12` [Example 71, (R)-4-(3-Fluoropyridin-4-yl)-2-methyl-N—((R)-1-(2-methyl-2H-indazol-4-yl)ethyl)piperazine-1-carboxamide], the IC50 stood at 3.1 nM in test [1] and 1.6 nM in test [2].

Consider `Cc1cnc2cccc([C@@H](C)NC(=O)N3CCN(c4ccnc(F)c4)C[C@H]3C)n12` [Example 9, (R)-4-(2-Fluoropyridin-4-yl)-2-methyl-N—((R)-1-(3-methylimidazo[1,2-a]pyridin-5-yl)ethyl)piperazine-1-carboxamide], for which the IC50 in test [1] was 12.3 nM; in test [2] it was 240 nM.

For the compound `COc1ccc(F)c([C@@H](C)NC(=O)N2CCN(c3ccncc3F)C[C@H]2C)c1` [Example 134], the IC50 is 6.6 nM in test [1] and 108 nM in test [2].

In the case of `COc1cccc([C@@H](C)NC(=O)N2CCN(c3ccncc3F)CC2C)c1` (stereo partly shown) [Example 154], the IC50 in test [1] came to 19.6 nM; in test [2] it was 60.2 nM.

Take `COc1cccc(CNC(=O)N2CCN(c3ccncc3F)CC2)c1` [Example 25, 4-(3-Fluoropyridin-4-yl)-N-(3-methoxybenzyl)piperazine-1-carboxamide]: the IC50 in test [1] worked out at 52.3 nM; in test [2] it was 749 nM.

As for `C[C@@H](NC(=O)N1CCN(c2ccnc(F)c2)[C@@H](C)C1)c1cccc(OC(F)F)c1` [Example 120], the IC50 in test [1] was 59.5 nM; in test [2], 3970 nM.

As to `COc1cccc([C@@H](C)OC(=O)N2CCN(c3ccncc3F)CC2)c1` [Example 17, (R)-1-(3-Methoxyphenyl)ethyl 4-(3-fluoropyridin-4-yl)piperazine-1-carboxylate], the IC50 amounted to 32.3 nM in test [1] and 1090 nM in test [2].

Consider `COc1cccc(CNC(=O)N2CCN(c3ccncc3F)C[C@H]2C)c1` [Example 138], for which the IC50 was 4.2 nM in test [1] and 97.5 nM in test [2].

For `COc1ccc(F)c([C@@H](C)NC(=O)N2CCN(c3ccnc(F)c3)C[C@H]2C)c1` [Example 112], the IC50 was found to be 38.3 nM in test [1] and 1320 nM in test [2].

Turning to `COc1cccc([C@@H](C)NC(=O)N2CCN(c3ccncc3F)CC2)c1Cl` [Example 20], the figures for the IC50 in test [1] and in test [2] were 581 nM and at least 5000 nM, respectively.

Consider `C[C@@H]1CN(c2ccnc(F)c2)CCN1C(=O)N[C@H](C)c1cccc2c1CCO2` [Example 114], for which the values for the IC50 in test [1] and in test [2] were 3.5 nM and 30.3 nM, respectively.

With `O=C(NCc1cccc(OC(F)F)c1)N1CCN(c2ccncc2F)CC1` [Example 129], the IC50 in test [1] is 84.5 nM; in test [2] it was 3540 nM.

Consider `Cc1cnc2cccc([C@@H](C)NC(=O)N3CCN(c4ccncc4F)C[C@H]3C)n12` [Example 65, (R)-4-(3-Fluoropyridin-4-yl)-2-methyl-N—((R)-1-(3-methylimidazo[1,2-a]pyridin-5-yl)ethyl)piperazine-1-carboxamide], for which the IC50 in test [1] turned out to be 3.4 nM; in test [2], 13.2 nM.
